Measured values taken from the OPERA property sets (Mansouri et al. 2018).
Values after ≈ are worked out from the molar mass of the structure shown.

conditions: 25 °C

With `CC(C)[C@H](C(=O)OC(C#N)c1cccc(Oc2ccccc2)c1)c1ccc(OC(F)F)cc1` (stereo partly drawn) as the compound, how does the solubility read?
The solubility was 0.000133 mM (≈ 0.06 µg/mL).

Which solubility does the source give for `Cn1c(=O)on(-c2ccc(Cl)c(Cl)c2)c1=O` here?
Its solubility is 0.00575 mM (≈ 1.5 µg/mL).

Which solubility does the source give for `O=C1C2CC=CCC2C(=O)N1SC(Cl)(Cl)Cl` (stereo not drawn) here?
Its solubility is 0.017 mM (≈ 5.1 µg/mL).

For `CC(C)NC(=O)N1CC(=O)N(c2cc(Cl)cc(Cl)c2)C1=O`, which solubility is on record?
The solubility was 0.0421 mM (≈ 13.9 µg/mL).

With `CC(C)(C)C(=O)C(Oc1ccc(Cl)cc1)n1cncn1` (stereo not drawn) as the compound, how does the solubility read?
The solubility was 0.243 mM (≈ 71.5 µg/mL).

Which solubility does the source give for `COC(=O)Nc1cccc(OC(=O)Nc2cccc(C)c2)c1` here?
Its solubility is 0.0161 mM (≈ 4.85 µg/mL).

Which solubility does the source give for `COC(=O)c1ccccc1CS(=O)(=O)NC(=O)Nc1nc(OC)cc(OC)n1` here?
Its solubility is 0.292 mM (≈ 120 µg/mL).

For `CNC(=O)Oc1ccc(SC)c(C)c1`, which solubility is on record?
The solubility was 0.107 mM (≈ 22.5 µg/mL).

With `CCN(CC)C(=O)SCc1ccc(Cl)cc1` as the compound, how does the solubility read?
The solubility was 0.109 mM (≈ 28 µg/mL).

With `COP(=O)(NC(C)=O)SC` (stereo not drawn) as the compound, how does the solubility read?
The solubility was 4470 mM (≈ 818000 µg/mL).

With `CC(C)C(Nc1ccc(C(F)(F)F)cc1Cl)C(=O)OC(C#N)c1cccc(Oc2ccccc2)c1` (stereo not drawn) as the compound, how does the solubility read?
Its solubility is 6.29e-06 mM (≈ 0.00316 µg/mL).

With `c1ccc2[nH]c(-c3cscn3)nc2c1` as the compound, how does the solubility read?
The solubility was 0.248 mM (≈ 50 µg/mL).

With `CCCSP(=O)(OCC)SCCC` as the compound, how does the solubility read?
The solubility was 3.09 mM (≈ 750 µg/mL).
